Laboratory results published in ChEMBL document CHEMBL4251681, “Isochromophilones A-F, Cytotoxic Chloroazaphilones from the Marine Mangrove Endophytic Fungus Diaporthe sp. SCSIO 41011” (J Nat Prod, 2018).
Activity calls are given as the source filed them. No cut-off for these calls is given here.

Key:
OS-RC-2 = test: Cytotoxicity against human OS-RC2 cells after 72 hrs by CCK-8 assay; format: functional, cell-based; details: OS-RC-2, 72 h
786-0 [1] = test: Cytotoxicity against human 786-O cells after 72 hrs by CCK-8 assay; format: functional, cell-based; details: 786-0, 72 h
ACHN = test: Cytotoxicity against human ACHN cells after 72 hrs by CCK-8 assay; format: functional, cell-based
786-0 [2] = test: Induction of apoptosis in human 786-O cells assessed as late apoptotic cells at 5 uM after 72 hrs by annexin V-FITC/propidium iodide staining based flow cytometry (reference value: 0%); format: functional
786-0 [3] = test: Induction of apoptosis in human 786-O cells assessed as late apoptotic cells at 2.5 uM after 48 hrs by annexin V-FITC/propidium iodide staining based flow cytometry (reference value: 0%); format: functional
786-0 [4] = test: Induction of apoptosis in human 786-O cells assessed as early apoptotic cells at 2.5 uM after 24 hrs by annexin V-FITC/propidium iodide staining based flow cytometry (reference value: 0%); format: functional
786-0 [5] = test: Induction of apoptosis in human 786-O cells assessed as late apoptotic cells at 10 uM after 48 hrs by annexin V-FITC/propidium iodide staining based flow cytometry (reference value: 0%); format: functional
786-0 [6] = test: Induction of apoptosis in human 786-O cells assessed as viable cells at 10 uM after 72 hrs by annexin V-FITC/propidium iodide staining based flow cytometry (reference value: 100%); format: functional; details: 786-0, 72 h, read-out: Activity
786-0 [7] = test: Induction of apoptosis in human 786-O cells assessed as necrotic cells at 2.5 uM after 24 hrs by annexin V-FITC/propidium iodide staining based flow cytometry (reference value: 0%); format: functional
786-0 [8] = test: Induction of apoptosis in human 786-O cells assessed as viable cells at 2.5 uM after 48 hrs by annexin V-FITC/propidium iodide staining based flow cytometry (reference value: 100%); format: functional; details: 786-0, 48 h, read-out: Activity
786-0 [9] = test: Induction of apoptosis in human 786-O cells assessed as late apoptotic cells at 10 uM after 72 hrs by annexin V-FITC/propidium iodide staining based flow cytometry (reference value: 0%); format: functional
786-0 [10] = test: Induction of apoptosis in human 786-O cells assessed as necrotic cells at 10 uM after 72 hrs by annexin V-FITC/propidium iodide staining based flow cytometry (reference value: 0%); format: functional
786-0 [11] = test: Induction of apoptosis in human 786-O cells assessed as necrotic cells at 5 uM after 72 hrs by annexin V-FITC/propidium iodide staining based flow cytometry (reference value: 0%); format: functional
786-0 [12] = test: Induction of apoptosis in human 786-O cells assessed as early apoptotic cells at 10 uM after 48 hrs by annexin V-FITC/propidium iodide staining based flow cytometry (reference value: 0%); format: functional
786-0 [13] = test: Induction of apoptosis in human 786-O cells assessed as late apoptotic cells at 2.5 uM after 72 hrs by annexin V-FITC/propidium iodide staining based flow cytometry (reference value: 0%); format: functional
786-0 [14] = test: Induction of apoptosis in human 786-O cells assessed as necrotic cells at 10 uM after 24 hrs by annexin V-FITC/propidium iodide staining based flow cytometry (reference value: 0%); format: functional
786-0 [15] = test: Induction of apoptosis in human 786-O cells assessed as early apoptotic cells at 5 uM after 24 hrs by annexin V-FITC/propidium iodide staining based flow cytometry (reference value: 0%); format: functional
786-0 [16] = test: Cell cycle arrest in human 786-O cells at 2.5 to 10 uM after 24 hrs by […] based flow cytometry; format: functional
786-0 [17] = test: Induction of apoptosis in human 786-O cells assessed as late apoptotic cells at 5 uM after 24 hrs by annexin V-FITC/propidium iodide staining based flow cytometry (reference value: 0%); format: functional
786-0 [18] = test: Induction of apoptosis in human 786-O cells assessed as viable cells at 5 uM after 72 hrs by annexin V-FITC/propidium iodide staining based flow cytometry (reference value: 100%); format: functional; details: 786-0, 72 h, read-out: Activity
786-0 [19] = test: Induction of apoptosis in human 786-O cells assessed as late apoptotic cells at 5 uM after 48 hrs by annexin V-FITC/propidium iodide staining based flow cytometry (reference value: 0%); format: functional
786-0 [20] = test: Induction of apoptosis in human 786-O cells assessed as early apoptotic cells at 2.5 uM after 72 hrs by annexin V-FITC/propidium iodide staining based flow cytometry (reference value: 0%); format: functional
786-0 [21] = test: Induction of apoptosis in human 786-O cells assessed as early apoptotic cells at 2.5 uM after 48 hrs by annexin V-FITC/propidium iodide staining based flow cytometry (reference value: 0%); format: functional
786-0 [22] = test: Induction of apoptosis in human 786-O cells assessed as early apoptotic cells at 5 uM after 72 hrs by annexin V-FITC/propidium iodide staining based flow cytometry (reference value: 0%); format: functional
786-0 [23] = test: Induction of apoptosis in human 786-O cells assessed as early apoptotic cells at 5 uM after 48 hrs by annexin V-FITC/propidium iodide staining based flow cytometry (reference value: 0%); format: functional
786-0 [24] = test: Induction of apoptosis in human 786-O cells assessed as late apoptotic cells at 10 uM after 24 hrs by annexin V-FITC/propidium iodide staining based flow cytometry (reference value: 0%); format: functional
786-0 [25] = test: Induction of apoptosis in human 786-O cells assessed as viable cells at 5 uM after 48 hrs by annexin V-FITC/propidium iodide staining based flow cytometry (reference value: 100%); format: functional; details: 786-0, 48 h, read-out: Activity
786-0 [26] = test: Induction of apoptosis in human 786-O cells assessed as necrotic cells at 10 uM after 48 hrs by annexin V-FITC/propidium iodide staining based flow cytometry (reference value: 0%); format: functional
786-0 [27] = test: Induction of apoptosis in human 786-O cells assessed as necrotic cells at 5 uM after 24 hrs by annexin V-FITC/propidium iodide staining based flow cytometry (reference value: 0%); format: functional
786-0 [28] = test: Induction of apoptosis in human 786-O cells assessed as viable cells at 5 uM after 24 hrs by annexin V-FITC/propidium iodide staining based flow cytometry (reference value: 100%); format: functional; details: 786-0, 24 h, read-out: Activity
786-0 [29] = test: Induction of apoptosis in human 786-O cells assessed as viable cells at 10 uM after 48 hrs by annexin V-FITC/propidium iodide staining based flow cytometry (reference value: 100%); format: functional; details: 786-0, 48 h, read-out: Activity
786-0 [30] = test: Induction of apoptosis in human 786-O cells assessed as early apoptotic cells at 10 uM after 24 hrs by annexin V-FITC/propidium iodide staining based flow cytometry (reference value: 0%); format: functional
786-0 [31] = test: Induction of apoptosis in human 786-O cells assessed as necrotic cells at 2.5 uM after 72 hrs by annexin V-FITC/propidium iodide staining based flow cytometry (reference value: 0%); format: functional
786-0 [32] = test: Induction of apoptosis in human 786-O cells assessed as necrotic cells at 5 uM after 48 hrs by annexin V-FITC/propidium iodide staining based flow cytometry (reference value: 0%); format: functional
786-0 [33] = test: Induction of apoptosis in human 786-O cells assessed as late apoptotic cells at 2.5 uM after 24 hrs by annexin V-FITC/propidium iodide staining based flow cytometry (reference value: 0%); format: functional
786-0 [34] = test: Induction of apoptosis in human 786-O cells assessed as viable cells at 2.5 uM after 24 hrs by annexin V-FITC/propidium iodide staining based flow cytometry (reference value: 100%); format: functional; details: 786-0, 24 h, read-out: Activity
786-0 [35] = test: Induction of apoptosis in human 786-O cells assessed as early apoptotic cells at 10 uM after 72 hrs by annexin V-FITC/propidium iodide staining based flow cytometry (reference value: 0%); format: functional
786-0 [36] = test: Induction of apoptosis in human 786-O cells assessed as necrotic cells at 2.5 uM after 48 hrs by annexin V-FITC/propidium iodide staining based flow cytometry (reference value: 0%); format: functional
786-0 [37] = test: Induction of apoptosis in human 786-O cells assessed as viable cells at 2.5 uM after 72 hrs by annexin V-FITC/propidium iodide staining based flow cytometry (reference value: 100%); format: functional; details: 786-0, 72 h, read-out: Activity
786-0 [38] = test: Induction of apoptosis in human 786-O cells assessed as viable cells at 10 uM after 24 hrs by annexin V-FITC/propidium iodide staining based flow cytometry (reference value: 100%); format: functional; details: 786-0, 24 h, read-out: Activity

## CC[C@H](C)/C=C(C)/C=C/C1=CC2=C(Cl)[C@H](OC)[C@]3(C)O[C@](C)(OC)[C@H](C(C)=O)[C@H]3C2=CO1
OS-RC-2
  IC50: 44 µM
786-0 [1]
  IC50: 38 µM
ACHN
  IC50: > 50 µM

## CC[C@H](C)/C=C(C)/C=C/C1=CC2=C(Cl)[C@H](O)[C@]3(C)OC(=O)[C@H](C(C)=O)[C@H]3C2=CO1
OS-RC-2
  IC50: 45 µM
786-0 [1]
  IC50: 34 µM
ACHN
  IC50: 27 µM

## CC[C@H](C)/C=C(C)/C=C/C1=CC2=C(Cl)C(=O)[C@](C)(O)[C@@H](CC(C)=O)C2=CO1
OS-RC-2
  IC50: 3.9 µM
786-0 [1]
  IC50: 3 µM
ACHN
  IC50: 4.4 µM

## CC[C@H](C)/C=C(C)/C=C/C1=CC2=C(Cl)[C@H](OC)[C@]3(C)O[C@@](C)(OC)[C@H](C(C)=O)[C@H]3C2=CO1
786-0 [2]
  Activity: 4%
786-0 [3]
  Activity: 1.7%
786-0 [4]
  Activity: 0.8%
786-0 [5]
  Activity: 45.5%
786-0 [6]
  viability at 10 µM: 0.5%
786-0 [7]
  Activity: 4.4%
786-0 [8]
  viability at 2.5 µM: 93.7%
OS-RC-2
  IC50: 13 µM
786-0 [9]
  Activity: 70.7%
786-0 [10]
  Activity: 1.4%
786-0 [11]
  Activity: 6.6%
786-0 [12]
  Activity: 11.2%
786-0 [13]
  Activity: 1.8%
786-0 [14]
  Activity: 28.8%
786-0 [15]
  Activity: 0.6%
786-0 [16]
  Activity: inactive
786-0 [17]
  Activity: 2%
786-0 [18]
  viability at 5 µM: 85.9%
786-0 [1]
  IC50: 8.9 µM
786-0 [19]
  Activity: 2.3%
786-0 [20]
  Activity: 1.5%
786-0 [21]
  Activity: 2%
786-0 [22]
  Activity: 3.5%
786-0 [23]
  Activity: 2.8%
786-0 [24]
  Activity: 7.5%
786-0 [25]
  viability at 5 µM: 86.1%
786-0 [26]
  Activity: 36.7%
786-0 [27]
  Activity: 10.4%
786-0 [28]
  viability at 5 µM: 87%
786-0 [29]
  viability at 10 µM: 6.6%
786-0 [30]
  Activity: 2.7%
786-0 [31]
  Activity: 6%
786-0 [32]
  Activity: 8.9%
ACHN
  IC50: 14 µM
786-0 [33]
  Activity: 1.5%
786-0 [34]
  viability at 2.5 µM: 93.3%
786-0 [35]
  Activity: 27.4%
786-0 [36]
  Activity: 2.5%
786-0 [37]
  viability at 2.5 µM: 90.7%
786-0 [38]
  viability at 10 µM: 60.9%

## CC[C@H](C)/C=C(C)/C=C/C1=CC2=C(Cl)C(=O)[C@]3(C)OC(=O)/C(=C(\C)O)[C@]3(O)[C@@]23O[C@H]3O1
OS-RC-2
  IC50: 38 µM
786-0 [1]
  IC50: 10 µM
ACHN
  IC50: 13 µM

## CC[C@H](C)/C=C(C)/C=C/C1=CC2=C(Cl)C(=O)[C@](C)(O)[C@@H](O)[C@H]2CO1
OS-RC-2
  IC50: 4.9 µM
786-0 [1]
  IC50: 48 µM
ACHN
  IC50: > 50 µM
